{"source": "paper PMC10851415", "about": "(Biochemistry, 2024)", "origin": "cited, not measured here", "tested_on": "influenza", "conditions": "in vivo, po; cited from earlier work"}
{"compound": "COC(=O)OCOc1c2n(ccc1=O)N([C@@H]1c3ccccc3SCc3c1ccc(F)c3F)[C@@H]1COCCN1C2=O", "note": "[BXM, Baloxavir marboxil]", "values": [{"measurement": "reduce fever in an average of", "value": 24, "unit": "h"}]}
